The source of these data is article PMC7253571, “Cucurbitane-Type Triterpene Glycosides from Momordica charantia and Their α-Glucosidase Inhibitory Activities” (Natural Products and Bioprospecting, 2020).

The experiment addresses α-glucosidase. Briefly: α-glucosidase inhibition assay (PNPG substrate, absorbance at 405 nm). In kind it is biochemical. To be noted: substrate PNPG 2.5 mM, enzyme 1.0 U/mL, PPBS pH 6.86, 37 °C, triplicate; read-out: α-Glucosidase inhibitory activity IC50. How it is done:
UV spectra were recorded on a UV-2401PC spectrometer (Shimadzu, Kyoto, Japan). Optical rotations were measured in methanol on JASCO P-1020 digital polarimeter (Jasco, Tokyo, Japan). IR spectra were scanned on a Bruker Tensor-27 Fourier transform infrared spectrometer with KBr pellets (Bruker, German). High-resolution (HR) ESI mass spectra data were measured on a Waters API QSTAR Pulsar spectrometer. 1D and 2D NMR spectra were obtained in pyridine-d5 on Bruker Ascend-400, 600 and 800 MHz NMR spectrometers with tetramethylsilane (TMS) as internal standard (Bruker, Zurich, Switzerland). Column chromatography (CC) was performed on macroporous resin (D-101, Tianjin, China), Lichroprep RP-18 (Merck, German), sephadex LH-20 (Pharmacia, USA), silica gel (200–300 mesh, Qingdao, China), and Semi-preparative HPLC was performed on an Agilent 1260 liquid chromatography system equipped with a ZORBAX SB-C18 column (5 μm, 9.4 × 250 mm, 3.0 mL/min) and a DAD detector. Fractions were detected by TLC, and spots were visualized by spraying with 10% H2SO4 in EtOH, followed by heating. α-glucosidase inhibitory activity was evaluated on the basis of the ability of the compounds to decrease glucosidase activity and then inhibit the breaking of glycosidic bonds in p-nitrophenyl-α-D-glucopyranoside (PNPG). Water was purchased from wahaha group co. LTD. Acetonitrile (chromatographic grade) was purchased from OCEANPAK (Sweden). Common organic solvents are industrial grade, used after re-distillation. PNPG was obtained from Sigma Chemical Co. (St. Louis, Mo, USA). α-glucosidase was purchased from Shanghai yuanye biotechnology Co., Ltd. Potassium phosphate buffer solution (PPBS) was obtained from Shanghai Yidian Scientific Instrument Co., Ltd. 96-well plates was purchased from Nest biotechnology co., LTD.
The α-glucosidase inhibition assay was performed according to the method adapted from the literature with slight modifications. α-glucosidase can cut glycosidic bonds in the PNPG to produce 4-nitrophenol (yellow), then measured its absorbance can determine the activity of enzyme. The test samples and ursolic acid (positive control) were dissolved in dimethylsulfoxide (DMSO), and then diluted with PPBS (pH 6.86) to the required concentration. The α-glucosidase (1.0 U/mL) and substrate (PNPG, 2.5 mM) were dissolved in PPBS. Sample wells included 60 μL of PPBS, 10 μL of test substances, 30 μL of enzyme stock solution, and incubated at 37 °C for 10 min. After the pre-incubation phase, 40 μL of PNPG solution was added and the mixture was incubated for another 20 min at 37 °C. Finally, 80 μL Na2CO3 (0.2 M) solution was added to the sample wells to stop the reaction. The absorbance of the reaction mixture was recorded at 405 nm using a microplate reader. All samples were measured in triplicate. The inhibition rate (%) was calculated by the following formula: Inhibition (%) = [1 − (Asample/Acontrol)] × 100.

Molecules are shown by their SMILES.

For `COC(C=C(C)C)CC(C)C1CCC2(C)C3C=CC45OC(OC)C3(CCC12C)C4CCC(OC1OC(CO)C(O)C(O)C1O)C5(C)C` [Compound 1, (19S,23R)-5β,19-epoxy-19,23-dimethoxycucurbita-6,24-dien-3β-ol 3-O-β-D-allopyranoside], the half-maximal inhibitory concentration (IC50) is over 100 µM.

With `COC(C=C(C)C)CC(C)C1CCC2(C)C3C=CC45OC(OC)C3(CCC12C)C4CCC(OC1OC(CO)C(O)C(O)C1O)C5(C)C` [Compound 2, (19S,23R)-5β,19-epoxy-19,23-dimethoxycucurbita-6,24-dien-3β-ol 3-O-β-D-glucopyranoside], the IC50 worked out at 63.3 ± 3.04 µM. In the case of `CO[C@H]1O[C@]23C=C[C@@H]4[C@@]1(CC[C@]1(C)[C@@H]([C@H](C)C[C@@H](C=C(C)C)OC)CC[C@@]41C)C2CC[C@H](O[C@@H]1O[C@H](CO)[C@@H](O)[C@@H](O)[C@H]1O)C3(C)C` (stereo partly drawn) [Compound 3, (19S,23S)-5β,19-epoxy-19,23-dimethoxycucurbita-6,24-dien-3β-ol 3-O-β-D-allopyranoside], the IC50 is over 100 µM. Then `CC(C)=CC=CC(C)C1CCC2(C)C3C=CC45OCC3(CCC12C)C4CCC(OC1OC(CO)C(O)C(O)C1O)C5(C)C` [Compound 4, 5β,19-epoxy-cucurbita-6,22E,24-trien-3β-ol 3-O-β-D-allopyranoside], with over 100 µM. Take `COC1OC23C=CC4C1(CCC1(C)C(C(C)CC=CC(C)(C)O)CCC41C)C2CCC(OC1OC(CO)C(O)C(O)C1O)C3(C)C` [Compound 5, 19(S)-methoxy-5β,19-epoxycucurbita-6,23-dien-3β,25-diol 3-O-β-D-glucopyranoside]: the IC50 was 59.1 ± 4.67 µM.

For the compound `C=C(C)/C=C/C[C@@H](C)[C@H]1CC[C@@]2(C)[C@@H]3C=C[C@@]45O[C@@H](OC)[C@]3(CC[C@]12C)C4CC[C@H](O[C@@H]1O[C@H](CO)[C@@H](O)[C@@H](O)[C@H]1O)C5(C)C` (stereo partly drawn) [Compound 6, (19R,23E)-5β,19-epoxy-19-methoxycucurbita-6,23,25-trien-3β-ol 3-O-β-D-allopyranoside], the half-inhibitory concentration (IC50) is over 100 µM. For the compound `C=C(C)/C=C/C[C@@H](C)[C@H]1CC[C@@]2(C)[C@@H]3C=C[C@@]45O[C@@H](OC)[C@]3(CC[C@]12C)[C@@H]4CC[C@H](O[C@@H]1O[C@H](CO)[C@@H](O)[C@H](O)[C@H]1O)C5(C)C` [Compound 7, charantoside I], the IC50 came to 35.1 ± 4.15 µM. For `C=C(C)/C=C/C[C@@H](C)[C@H]1CC[C@@]2(C)[C@@H]3C=C[C@@]45OC[C@]3(CC[C@]12C)[C@@H]4CC[C@H](O[C@@H]1O[C@H](CO)[C@@H](O)[C@H](O)[C@H]1O)C5(C)C` [Compound 8, charantoside III], the IC50 was found to be 36.4 ± 3.03 µM. As for `COC(C)(C)/C=C/C[C@@H](C)[C@H]1CC[C@@]2(C)[C@@H]3[C@@H](O[C@@H]4O[C@H](CO)[C@@H](O)[C@H](O)[C@H]4O)C=C4C(CC[C@H](O)C4(C)C)[C@]3(C=O)CC[C@]12C` (stereo partly shown) [Compound 9, momordicoside K], the IC50 was determined as 28.4 ± 2.08 µM.

As to `CO[C@H]1C=C2C(CC[C@H](O[C@@H]3O[C@H](CO)[C@@H](O)[C@@H](O)[C@H]3O)C2(C)C)[C@]2(C=O)CC[C@]3(C)[C@@H]([C@H](C)C/C=C/C(C)(C)OC)CC[C@@]3(C)[C@H]12` (stereo partly drawn) [Compound 10, 7β,25-dimethoxycucurbita-5(6),23(E)-dien-19-al 3-O-β-D-allopyranoside], the IC50 is over 100 µM.
